# Laboratory results from patent US5010073A, “Use of liposomes as carriers for metalloporphyrins” (The Rockefeller University, priority 1990, dated 1991).
# Read-outs that look alike come from different tables or passages of the source.
# Experiments:
# heme oxygenase [1] = experiment: Efficacy as heme oxygenase inhibitors (statements in words); settings: at the same concentrations as SnPP
# bilirubin levels [2] = settings: cited from earlier work
# [3] = Toxicity of chromium porphyrin preparations; type: in vivo; settings: aqueous: isotonic aqueous media at the same level as SnPP; liposomal: at effective dosage levels
# heme oxygenase [4] = experiment: Inhibition of splenic and hepatic heme oxygenase after injection; type: in vivo, rat; settings: single animal; for Heme Oxygenase activity Liver: saline 2.3 ± 0.6; for Heme Oxygenase activity Spleen: saline 9.0 ± 2.4
# Description: Liver were perfused in situ with ice cold 0.9% NaCl and subsequently homogenized in 3 volumes of 0.1 M potassium phosphate buffer, pH 7.4, containing 0.25 M sucrose. […] Splenic microsomes were prepared in an identical manner. The cytosolic fraction obtained from the liver of control (saline-injected) animals served as a source of bilirubin reductase for subsequent analysis of heme oxygenase activity. Assays for heme oxygenase and metalloporphyrin concentration were performed on fresh microsomes whenever possible. Otherwise, microsomal fractions were kept at liquid nitrogen temperatures until the time of assay.
# The activity of heme oxygenase in tissues was determined as described by Drummond and Kappas, supra. […] Standard settings for the two metalloporphyrins examined were: […]
# The rats were sacrificed at varying times after injection for measurements of hepatic and splenic heme oxygenase activity.
# bilirubin levels [5] = settings: cited from earlier work; remark: listed apart in the source
# bilirubin levels [6] = settings: NEONATAL MONKEY; dose 24-185 umoles/kg; cited from earlier work
# heme oxygenase [7] = settings: rats, cited from earlier work
# [8] = cited from earlier work
# plasma bilirubin levels = experiment: Lowering plasma bilirubin levels in newborn animals; type: in vivo
compound,measurement,setting,value
"C=CC1=C(C)c2cc3[n-]c(cc4nc(cc5[n-]c(cc1n2)c(C)c5C=C)C(C)=C4CCC(=O)O)c(CCC(=O)O)c3C.[Zn+2] [ZnPP, zinc protoporphyrin]",efficacy as heme oxygenase inhibitor relative to SnPP,heme oxygenase [1],relatively ineffective
same,BILIRUBIN/CO REDUCTION (percent),"bilirubin levels [2]; NORMAL ADULT RAT, dose 4-40 umoles/kg (ZnPP)",20-30%
chromium protoporphyrin [CrPP],toxicity,[3],exhibits some toxicity
same,BILIRUBIN/CO REDUCTION (percent),"bilirubin levels [2]; NEONATAL RAT, dose 10 umoles/kg (CrPP)",32%
"C=Cc1c2[n-]c(c1C)/C=c1\[n-]/c(c(C)c1C=C)=C\c1[n-]c(c(CCC(=O)O)c1C)/C=c1\[n-]c(c(C)c1CCC(=O)O)=C2.[Sn+4] [SnPP, tin protoporphyrin]",Heme Oxygenase activity Liver,"heme oxygenase [4]; 10 μm/kg IV, 16 hrs",0.6 nm bilirubin/hr/mg. protein
same,Heme Oxygenase activity Spleen,"heme oxygenase [4]; 10 μm/kg IV, 16 hrs",3.6 nm bilirubin/hr/mg. protein
same,Heme Oxygenase activity Liver,"heme oxygenase [4]; 10 μm/kg IV, 48 hrs",1.0 nm bilirubin/hr/mg. protein
same,Heme Oxygenase activity Spleen,"heme oxygenase [4]; 10 μm/kg IV, 48 hrs",5.9 nm bilirubin/hr/mg. protein
same,Heme Oxygenase activity Liver,"heme oxygenase [4]; 50 μm/kg IV, 16 hrs",0.4 nm bilirubin/hr/mg. protein
same,Heme Oxygenase activity Spleen,"heme oxygenase [4]; 50 μm/kg IV, 16 hrs",5.3 nm bilirubin/hr/mg. protein
same,Heme Oxygenase activity Liver,"heme oxygenase [4]; 50 μm/kg IV, 48 hrs",0.5 nm bilirubin/hr/mg. protein
same,Heme Oxygenase activity Spleen,"heme oxygenase [4]; 50 μm/kg IV, 48 hrs",6.3 nm bilirubin/hr/mg. protein
same,BILIRUBIN/CO REDUCTION (percent),"bilirubin levels [5]; ABO INCOMPATIBILITY-MAN, dose 0.5 umoles/kg",21-32%
same,BILIRUBIN/CO REDUCTION (percent),"bilirubin levels [5]; BILIARY CIRRHOSIS-MAN, dose 0.25-2.0 umoles/kg",7-23%
same,BILIRUBIN/CO REDUCTION (percent),"bilirubin levels [5]; GILBERT'S DISEASE-MAN, dose 0.5-1.8 umoles/kg",29-43%
same,BILIRUBIN/CO REDUCTION (percent),"bilirubin levels [5]; NORMAL ADULT-MAN, dose 1-2 umoles/kg",38-47%
same,BILIRUBIN/CO REDUCTION (percent),bilirubin levels [6],91%
same,BILIRUBIN/CO REDUCTION (percent),"bilirubin levels [2]; BILE DUCT LIGATED RAT, dose 100 umoles/kg",62-70%
same,BILIRUBIN/CO REDUCTION (percent),"bilirubin levels [2]; NEONATAL GUNN RAT, dose 50 umoles/kg",19%
same,BILIRUBIN/CO REDUCTION (percent),"bilirubin levels [2]; NEONATAL RAT/HEMATOMA, dose 65 umoles/kg",25%
same,BILIRUBIN/CO REDUCTION (percent),"bilirubin levels [2]; NORMAL ADULT RAT, dose 10-50 umoles/kg",24-30%
same,HEME OXYGENASE ACTIVITY 24 HOURS AFTER TREATMENT,"heme oxygenase [7]; KIDNEY, prior to treatment 1.8 ± 0.2",0.6 ± 0.1 nm bilirubin/hr/mg. protein
same,HEME OXYGENASE ACTIVITY 24 HOURS AFTER TREATMENT,"heme oxygenase [7]; LIVER, prior to treatment 2.7 ± 0,3",0.3 ± 0.04 nm bilirubin/hr/mg. protein
same,HEME OXYGENASE ACTIVITY 24 HOURS AFTER TREATMENT,"heme oxygenase [7]; SPLEEN, prior to treatment 12.4 ± 0.4",2.3 ± 0.3 nm bilirubin/hr/mg. protein
same,inhibition of splenic heme oxygenase,heme oxygenase [7]; following intravenous administration,50-75%
same,"CONCENTRATION OF SnPP IN ORGAN @ 24 HOURS, MICROSOMES","[8]; LIVER, rats, intravenous",146-284 pm/mg. protein
same,"CONCENTRATION OF SnPP IN ORGAN @ 24 HOURS, MICROSOMES","[8]; SPLEEN, rats, intravenous",60 -90 pm/mg. protein
same,concentration of SnPP in the spleen relative to SnPP concentration in the liver,"[8]; rat, in vivo, iv",one-fourth
same,concentration,"[8]; read-out: CONCENTRATION OF SnPP IN ORGAN @ 24 HOURS, HOMOGENATE, SPLEEN, rats, intravenous, Mean ± SE for 3-4 rats",6.5 ± 0.6 µM
"C=CC1=C(C)c2cc3[n-]c(cc4[n-]c(cc5nc(cc1n2)C(C)=C5C=C)c(C)c4CCC(=O)[O-])c(CCC(=O)[O-])c3C.[H+].[H+].[Mn+2] [MnPP, manganese protoporphyrin]",lowering plasma bilirubin levels,plasma bilirubin levels,ineffective
